The source made the active and inactive calls. No cut-off for these calls is given here. Starred links: 1 amine or outer side, 2 acyl side, 3 side chain; linkers in the order of their positions; H or OH if unused. Positions of bridges follow the written chain, without caps; N, C: chain ends. Non-standard residues stand in square brackets, D forms with d. Residues, ends and D or L forms follow the SMILES beside them. Adda = CO[C@@H](Cc1ccccc1)[C@@H](C)/C=C(C)/C=C/[C@H](N[*:1])[C@H](C)C(=O)[*:2]; dAsp(3S-Me) = C[C@H](C(=O)[*:3])[C@@H](N[*:1])C(=O)[*:2]; d(γGlu) = O=C(O)[C@@H](CCC(=O)[*:2])N[*:1]; NMeDha = C=C(NC)C(=O)O
Assays:
[1] = Inhibition of PP2A (unknown origin)
[2] = Aqueous stability of compound assessed as compound remaining measured at 240 mins by HPLC assay; assay type: physicochemical; details: aqueous solution, read-out: Stability
[3] = system: U-87 MG; test: Induction of apoptosis in human U-87 MG cells assessed as S phase cells at 25 uM incubated for 24 hrs in presence of TMZ by propidium iodide staining based flow cytometry analysis (reference value: 29.4%); assay type: functional, U-87MG ATCC
[4] = system: U-87 MG; test: Antitumor activity against human U-87 MG cells xenografted in BALB/c nude mouse assessed as tumor growth retardation at 40 mg/kg, po administered every other day for 18 days; assay type: functional, organism-based; details: U-87MG ATCC, time 18.0 day
[5] = system: U-87 MG; test: Induction of apoptosis in human U-87 MG cells assessed as G2/M phase cells at 25 uM incubated for 24 hrs by propidium iodide staining based flow cytometry analysis (reference value: 11.9%); assay type: functional, U-87MG ATCC
[6] = system: U-87 MG; test: Induction of apoptosis in human U-87 MG cells assessed as G0/G1 phase cells at 25 uM incubated for 24 hrs in presence of TMZ by propidium iodide staining based flow cytometry analysis (reference value: 58.8%); assay type: functional, U-87MG ATCC
[7] = system: U-87 MG; test: Induction of apoptosis in human U-87 MG cells assessed as S phase cells at 25 uM incubated for 24 hrs by propidium iodide staining based flow cytometry analysis (reference value: 29.4%); assay type: functional, U-87MG ATCC
[8] = system: U-87 MG; test: Induction of apoptosis in human U-87 MG cells assessed as G2/M phase cells at 25 uM incubated for 24 hrs in presence of TMZ by propidium iodide staining based flow cytometry analysis (reference value: 11.9%); assay type: functional, U-87MG ATCC
[9] = system: U-87 MG; test: Cytotoxicity against human U-87 MG cells incubated for 48 hrs by CCK8 assay; assay type: functional, cell-based, U-87MG ATCC
[10] = system: U-87 MG; test: Induction of apoptosis in human U-87 MG cells assessed as G0/G1 phase cells at 25 uM incubated for 24 hrs by propidium iodide staining based flow cytometry analysis (reference value: 58.8%); assay type: functional, U-87MG ATCC
[11] = Toxicity in BALB/c nude mouse xenografted with U-87 MG cells assessed as kidney damage at 3 mg/kg, po administered every other day for 18 days by H and E staining based assay; assay type: organism-based; details: in vivo, 432 h, time 18 day
[12] = system: U-87 MG; test: Antitumor activity against human U-87 MG cells xenografted in BALB/c nude mouse assessed as reduction in MGMT expression at 1.5 to 3 mg/kg, po measured after 4 hrs in presence of 40 mg/kg TMZ by Western blotting analysis; assay type: functional, organism-based; details: U-87MG ATCC, dose 1.5-3 mg/kg
[13] = Aqueous stability of compound assessed as compound remaining measured at 120 mins by HPLC assay; assay type: physicochemical; details: aqueous solution, read-out: Stability
[14] = Cytotoxicity against human BEAS-2B incubated for 48 hrs by CCK8 assay; assay type: toxicity, cell-based; details: BEAS-2B cells
[15] = organism: Homo sapiens; test: Selectivity ratio of IC50 for PP1 (unknown origin ) to IC50 for PP5 (unknown origin)
[16] = system: HCT-116; test: Cytotoxicity against human HCT-116 cells incubated for 48 hrs by CCK8 assay; assay type: functional, cell-based; details: HCT-116, 48 h
[17] = Inhibition of bovine PP2A using [32P]-phosphohistone as substrate preincubated for 10 mins followed by substrate addition; parameters: species or system Bos taurus
[18] = Toxicity in BALB/c nude mouse xenografted with U-87 MG cells assessed as kidney damage at 3 mg/kg, po administered every other day for 18 days in presence of 40 mg/kg TMZ by H and E staining based assay; assay type: organism-based; details: in vivo, 432 h, time 18 day
[19] = Aqueous stability of compound assessed as compound remaining measured at 480 mins by HPLC assay; assay type: physicochemical; details: aqueous solution, read-out: Stability
[20] = biological target: T1, Serine/threonine-protein phosphatase 5 (Homo sapiens, UniProt P53041); test: Inhibition of human PPP5C (169 to 499 residues) expressed in Escherichia coli using [32P]-phosphohistone as substrate preincubated for 10 mins followed by substrate addition
T1 sequence (P53041 whole entry): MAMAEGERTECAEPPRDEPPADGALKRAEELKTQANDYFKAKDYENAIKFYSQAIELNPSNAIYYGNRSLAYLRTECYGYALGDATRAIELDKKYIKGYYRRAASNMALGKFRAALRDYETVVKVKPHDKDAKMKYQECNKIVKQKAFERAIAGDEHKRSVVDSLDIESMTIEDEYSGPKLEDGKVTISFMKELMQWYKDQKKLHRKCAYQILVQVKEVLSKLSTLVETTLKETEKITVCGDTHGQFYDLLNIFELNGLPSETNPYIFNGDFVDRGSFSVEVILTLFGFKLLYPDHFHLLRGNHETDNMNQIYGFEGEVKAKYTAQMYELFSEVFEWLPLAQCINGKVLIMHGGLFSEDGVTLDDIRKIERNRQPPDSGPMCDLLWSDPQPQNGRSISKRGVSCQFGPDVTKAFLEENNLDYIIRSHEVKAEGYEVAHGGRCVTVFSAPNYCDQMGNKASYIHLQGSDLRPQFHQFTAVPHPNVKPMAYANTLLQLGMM

[21] = Stability of compound in water assessed as remaining compound after 24 hrs; assay type: physicochemical; details: read-out: Stability
[22] = Inhibition of PP2A in human U-87 MG cell lysate using RRA(pT)VA as substrate; assay type: subcellular
[23] = Aqueous stability of compound assessed as compound remaining measured at 60 mins by HPLC assay; assay type: physicochemical; details: aqueous solution, read-out: Stability
[24] = Aqueous stability of compound assessed as compound remaining measured at 10 mins by HPLC assay; assay type: physicochemical; details: aqueous solution, read-out: Stability
[25] = system: U-87 MG; test: Induction of apoptosis in human U-87 MG cells assessed as G0/G1 phase cells at 5 uM incubated for 24 hrs by propidium iodide staining based flow cytometry analysis (reference value: 58.8%); assay type: functional, U-87MG ATCC
[26] = system: U-87 MG; test: Induction of apoptosis in human U-87 MG cells assessed as S phase cells at 5 uM incubated for 24 hrs by propidium iodide staining based flow cytometry analysis (reference value: 29.4%); assay type: functional, U-87MG ATCC
[27] = organism: Homo sapiens; test: Selectivity ratio of IC50 for PP2A (unknown origin ) to IC50 for PP5 (unknown origin)
[28] = Cytotoxicity against HUVECs incubated for 48 hrs by CCK8 assay; assay type: toxicity, cell-based; details: human, HUVEC cells
[29] = system: U-87 MG; test: Antitumor activity against human U-87 MG cells xenografted in BALB/c nude mouse assessed as tumor growth inhibition at 3 mg/kg, po administered every other day for 18 days in presence of 40 mg/kg TMZ; assay type: functional, U-87MG ATCC; details: 432 h, time 18 day, read-out: TGI
[30] = system: U-87 MG; test: Induction of apoptosis in human U-87 MG cells assessed as G2/M phase cells at 5 uM incubated for 24 hrs by propidium iodide staining based flow cytometry analysis (reference value: 11.9%); assay type: functional, U-87MG ATCC
[31] = Aqueous stability of compound assessed as compound remaining measured at 30 mins by HPLC assay; assay type: physicochemical; details: aqueous solution, read-out: Stability
[32] = Stability in mouse plasma assessed as half life measured upto 300 mins by LC-MS/MS analysis; assay type: ADME, cell-free
[33] = system: U-87MG ATCC; test: Upregulation of p53 expression in human U-87 MG cells at 6.25 to 100 uM after 24 hrs by Western blotting analysis; assay type: functional, cell-based; details: dose 6.25-100 µM
[34] = Cytotoxicity against HEK293T cells incubated for 48 hrs by CCK8 assay; assay type: toxicity, cell-based, HEK-293T; details: human
[35] = system: A549; test: Cytotoxicity against human A549 cells incubated for 48 hrs by CCK8 assay; assay type: functional, cell-based; details: A549, 48 h
[36] = Toxicity in BALB/c nude mouse xenografted with U-87 MG cells assessed as liver damage at 3 mg/kg, po administered every other day for 18 days in presence of 40 mg/kg TMZ by H and E staining based assay; assay type: organism-based; details: in vivo, 432 h, time 18 day
[37] = Toxicity in BALB/c nude mouse xenografted with U-87 MG cells assessed as liver damage at 3 mg/kg, po administered every other day for 18 days by H and E staining based assay; assay type: organism-based; details: in vivo, 432 h, time 18 day
[38] = system: U-87MG ATCC; test: Downregulation of cyclin D1 expression in human U-87 MG cells at 25 uM incubated for 24 hrs in presence TMZ by Western blotting analysis; assay type: functional, cell-based

C/C=C1/C(=O)N[C@@H](C(=O)O)[C@H](C)C(=O)N[C@@H](CCCNC(=N)N)C(=O)N[C@@H](/C=C/C(C)=C/[C@H](C)[C@H](Cc2ccccc2)OC)[C@H](C)C(=O)N[C@@H](C(=O)O)CCC(=O)N1C [NODULARIN]
IC50 [1]: 0.3 nM

O=C(O)[C@H]1[C@@H](C(=O)N2Cc3ccccc3C2)[C@@H]2CC[C@H]1O2
remaining at 4 h [2]: 46.4%

O=C(O)[C@@H]1[C@H](C(=O)N2CCc3ccccc32)[C@H]2CC[C@@H]1O2
remaining at 4 h [2]: 52.8%

O=CN1CCN(C(=O)[C@@H]2[C@H](C(=O)O)[C@H]3CC[C@@H]2O3)CC1
remaining at 4 h [2]: 80.3%

Cn1nnc2c(C(N)=O)ncn2c1=O [TEMOZOLOMIDE]
Activity [3]: 69.6%
Activity [4]: Active
Activity [5]: 13.5%
Activity [6]: 37.7%
Activity [7]: 31.5%
Activity [8]: 7.4%
IC50 [9]: > 200000 nM
Activity [10]: 54.5%

C[C@@](O)(/C=C/[C@H]1CC=CC(=O)O1)[C@@H](C[C@@H](O)\C=C/C=C\C=C\CO)OP(=O)(O)O [FOSTRIECIN]
IC50 [1]: 1.5 nM

C[C@@]12C(=O)OC(=O)[C@]1(C)[C@H]1CC[C@@H]2O1 [CANTHARIDIN]
IC50 [1]: 160 nM

CC1c2ccccc2CN1C(=O)[C@@H]1[C@H](C(=O)O)[C@H]2CC[C@@H]1O2 (stereo partly drawn)
remaining at 4 h [2]: 71.8%

O=C(O)[C@@H]1[C@H](C(=O)NC2CCCC2)[C@H]2CC[C@@H]1O2
remaining at 4 h [2]: 72.2%

O=C(Nc1ccccc1)[C@@H]1[C@H](C(=O)O)[C@H]2CC[C@@H]1O2
remaining at 4 h [2]: 74.5%

C=C1C(=O)N[C@H](C)C(=O)N[C@@H](CC(C)C)C(=O)N[C@@H](C(=O)O)[C@H](C)C(=O)N[C@@H](CCCNC(=N)N)C(=O)N[C@@H](/C=C/C(C)=C/[C@H](C)[C@H](Cc2ccccc2)OC)[C@H](C)C(=O)N[C@@H](C(=O)O)CCC(=O)N1C [MICROCYSTIN-LR] (R[Adda][d(γGlu)][NMeDha][dA]L[dAsp(3S-Me)]-OH; lactam N-7)
IC50 [1]: 0.04 nM

O=C(O)[C@@H]1[C@H](C(=O)N2CCC2)[C@H]2CC[C@@H]1O2
remaining at 4 h [2]: 33.8%

O=C1OC(=O)C2C3CCC(O3)C12 (stereo not drawn)
IC50 [1]: 3000 nM

O=C(O)[C@@H]1[C@H](C(=O)N2CC=CC2)[C@H]2CC[C@@H]1O2
remaining at 4 h [2]: 35.7%

O=C(O)[C@@H]1[C@H](C(=O)N2CCN(c3ccccc3)CC2)[C@H]2CC[C@@H]1O2
remaining at 4 h [2]: 93%

C=C1[C@@H](O)[C@@H]2O[C@]3(CC[C@H](/C=C/[C@@H](C)[C@@H]4CC(C)=C[C@@]5(O[C@H](C[C@@](C)(O)C(=O)O)CC[C@H]5O)O4)O3)CC[C@H]2O[C@@H]1[C@@H](O)C[C@H](C)[C@H]1O[C@@]2(CCCCO2)CC[C@H]1C [OKADAIC ACID]
IC50 [1]: 0.1 nM

O=C(NC1CCCCC1)[C@@H]1[C@H](C(=O)O)[C@H]2CC[C@@H]1O2
remaining at 4 h [2]: 73.2%

CN1CCN(C(=O)[C@@H]2[C@H](C(=O)O)[C@H]3CC[C@@H]2O3)CC1
Activity [11]: Toxic
Activity [12]: inactive
Activity [3]: 11.8%
remaining at 2 h [13]: 50%
IC50 at 48 h [14]: 3500 nM
Ratio IC50 [15]: 0.7
IC50 [16]: 10100 nM
IC50 [17]: 9 nM
Activity [18]: Toxic
remaining at 8 h [19]: 14%
IC50 [20]: 3000 nM
remaining at 24 h [21]: 5.3%
IC50 [22]: 1000 nM
Activity [6]: 52.6%
remaining at 1 h [23]: 68%
remaining at 10 min [24]: 93%
Activity [25]: 57.4%
Activity [26]: 28.4%
Ratio IC50 [27]: 0.1
IC50 at 48 h [28]: 9700 nM
inhibition in vivo at 3 mg/kg [29]: 46.2%
Activity [8]: 22.9%
IC50 [9]: 25600 nM
Activity [30]: 14.4%
remaining at 0.5 h [31]: 79%
half-life [32]: 5.03 h
Activity [33]: inactive
IC50 at 48 h [34]: 26600 nM
remaining at 4 h [2]: 45.6%
IC50 [35]: 8800 nM
Activity [36]: Toxic
Activity [37]: Toxic
Activity [38]: inactive

O=C(NC1CCCC1)[C@@H]1[C@H](C(=O)O)[C@H]2CC[C@@H]1O2
remaining at 4 h [2]: 10.2%
